In paper PMC3268193 (British Journal of Pharmacology, 2012):
Changes are numbered by the printed parent chain.

Key:
Format in all cases: cell-based
P2X1 Cys2(1-6) chimera = molecular target: T1, P2X1 Cys2(1-6) chimera (Homo sapiens, UniProt P51575, A118P/A137L/A141G/A151Y/D154G/DEL120-123/E128S/F152Y/G124S/G131D/I144L/I161V/INS125RVHNAT/INS150P/K127L/K136E/K138D/K140L/K148R/N153Q/P134A/Q142N/R139M/S130A/T133V/T155P/V156S); assay: Two-electrode voltage clamp, chimera P2X1 Cys2; conditions: P2X1 Cys2(1–6)
T1 sequence (P51575 with tags, fused parts or gaps A118P/DEL120-123/G124S/INS125RVHNAT/K127L/E128S/S130A/G131D/T133V/P134A/K136E/A137L/K138D/R139M/K140L/A141G/Q142N/I144L/K148R/INS150P/A151Y/F152Y/N153Q/D154G/T155P/V156S/I161V): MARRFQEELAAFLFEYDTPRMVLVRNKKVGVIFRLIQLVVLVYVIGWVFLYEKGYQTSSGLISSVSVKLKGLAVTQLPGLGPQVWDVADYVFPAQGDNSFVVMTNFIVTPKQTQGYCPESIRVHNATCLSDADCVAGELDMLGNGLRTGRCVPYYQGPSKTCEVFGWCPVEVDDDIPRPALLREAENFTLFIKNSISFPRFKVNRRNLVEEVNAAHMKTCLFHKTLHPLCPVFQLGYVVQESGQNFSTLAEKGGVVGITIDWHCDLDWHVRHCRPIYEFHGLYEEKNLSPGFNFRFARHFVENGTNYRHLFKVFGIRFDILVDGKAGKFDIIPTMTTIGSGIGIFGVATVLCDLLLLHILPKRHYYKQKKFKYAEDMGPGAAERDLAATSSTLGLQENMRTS

P2X1 Cys2(3-4) chimera = molecular target: T2, P2X1 Cys2(3-4) chimera (Homo sapiens, UniProt P51575, A137L/A141G/I144L/K136E/K138D/K140L/K148R/P134A/Q142N/R139M/T133V); assay: Two-electrode voltage clamp, chimera P2X1 Cys2
T2 sequence (P51575 1-399 T133V/P134A/K136E/A137L/K138D/R139M/K140L/A141G/Q142N/I144L/K148R): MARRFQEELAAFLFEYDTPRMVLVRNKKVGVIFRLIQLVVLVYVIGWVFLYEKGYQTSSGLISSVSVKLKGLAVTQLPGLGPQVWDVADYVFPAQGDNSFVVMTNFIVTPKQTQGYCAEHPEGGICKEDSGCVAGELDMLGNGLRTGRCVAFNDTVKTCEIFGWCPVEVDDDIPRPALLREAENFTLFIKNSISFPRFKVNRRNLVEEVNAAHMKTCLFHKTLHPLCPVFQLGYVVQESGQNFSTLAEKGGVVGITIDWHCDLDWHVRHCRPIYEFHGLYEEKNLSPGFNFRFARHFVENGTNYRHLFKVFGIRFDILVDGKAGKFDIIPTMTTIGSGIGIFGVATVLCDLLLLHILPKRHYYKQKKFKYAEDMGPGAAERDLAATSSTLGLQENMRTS

[1] = molecular target: T3, P2X1 receptor mutant R139M (Homo sapiens, UniProt P51575, R139M); assay: Two-electrode voltage clamp, P2X1 mutant R139M
T3 sequence (P51575 1-399 R139M): T2 sequence (P51575 1-399 T133V/P134A/K136E/A137L/K138D/R139M/K140L/A141G/Q142N/I144L/K148R) with V133T, A134P, E136K, L137A, D138K, L140K, G141A, N142Q, L144I, R148K

[2] = molecular target: T4, P2X1 receptor mutant KAKRK → EADRK(2) (Homo sapiens, UniProt P51575, K136E/K138D); assay: Two-electrode voltage clamp, P2X1 mutant X1-EADRK
T4 sequence (P51575 1-399 K136E/K138D): T2 sequence (P51575 1-399 T133V/P134A/K136E/A137L/K138D/R139M/K140L/A141G/Q142N/I144L/K148R) with V133T, A134P, L137A, M139R, L140K, G141A, N142Q, L144I, R148K

[3] = molecular target: T5, P2X1 receptor mutant KAKRK → EADML(4) (Homo sapiens, UniProt P51575, K136E/K138D/K140L/R139M); assay: Two-electrode voltage clamp, P2X1 mutant X1-EADML
T5 sequence (P51575 1-399 K136E/K138D/R139M/K140L): T2 sequence (P51575 1-399 T133V/P134A/K136E/A137L/K138D/R139M/K140L/A141G/Q142N/I144L/K148R) with V133T, A134P, L137A, G141A, N142Q, L144I, R148K

P2X2 Cys1(3-4) chimera = molecular target: T6, P2X2 Cys1(3-4) chimera (Homo sapiens, UniProt Q9UBL9, A144P/D148K/E146K/G151A/L147A/L150K/L154I/M149R/N152Q/R158K/V143T); assay: Two-electrode voltage clamp, chimera P2X2 Cys1
T6 sequence (Q9UBL9 1-471 V143T/A144P/E146K/L147A/D148K/M149R/L150K/G151A/N152Q/L154I/R158K): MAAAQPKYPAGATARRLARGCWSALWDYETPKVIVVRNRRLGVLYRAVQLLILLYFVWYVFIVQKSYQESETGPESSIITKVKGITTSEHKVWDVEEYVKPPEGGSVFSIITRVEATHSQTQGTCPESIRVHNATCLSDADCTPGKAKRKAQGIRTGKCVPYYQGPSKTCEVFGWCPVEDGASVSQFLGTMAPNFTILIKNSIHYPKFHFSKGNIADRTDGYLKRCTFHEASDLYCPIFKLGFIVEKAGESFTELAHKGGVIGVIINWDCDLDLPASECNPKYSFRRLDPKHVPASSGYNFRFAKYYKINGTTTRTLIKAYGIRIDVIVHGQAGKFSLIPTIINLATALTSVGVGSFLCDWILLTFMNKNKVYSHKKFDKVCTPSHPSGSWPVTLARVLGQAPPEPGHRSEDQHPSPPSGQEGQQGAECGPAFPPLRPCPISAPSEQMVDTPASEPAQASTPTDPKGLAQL

Reduction in NF449 sensitivity compared with P2X1 WT (P2X1 Cys2(1-6) chimera) | Hill slope of NF449 inhibition curve (P2X1 Cys2(1-6) chimera; vs EC90 ATP) | Decrease in NF449 sensitivity compared with P2X1 WT (P2X1 Cys2(3-4) chimera) | Reduction of ATP-evoked current ([1]; 1 nM antagonist, EC90 ATP (10 µM)) | Extra decrease in NF449 sensitivity compared with the K138D mutant [2] | Reduction in NF449 sensitivity compared with WT P2X1 [3] | IC50 (P2X2 Cys1(3-4) chimera; read-out: NF449 IC50, vs EC90 ATP) | Effect of mutation on suramin sensitivity [1] | Increase in suramin sensitivity compared with WT P2X2 (P2X2 Cys1(3-4) chimera) | SMILES
~300 fold | 1.38 ± 0.07 | ~1700 fold | 40–70% | ~15 fold | ~600 fold | 1100 nM | – | – | O=C(Nc1cc(C(=O)Nc2ccc(S(=O)(=O)O)cc2S(=O)(=O)O)cc(C(=O)Nc2ccc(S(=O)(=O)O)cc2S(=O)(=O)O)c1)Nc1cc(C(=O)Nc2ccc(S(=O)(=O)O)cc2S(=O)(=O)O)cc(C(=O)Nc2ccc(S(=O)(=O)O)cc2S(=O)(=O)O)c1 [NF449, 4,4′,4′′,4′′′-(carbonylbis(imino-5,1,3-benzenetriyl-bis(carbonylimino)))tetrakis-benzene-1,3-disulphonic acid]
– | – | – | – | – | – | – | no effect | ~30 fold | Cc1ccc(C(=O)Nc2ccc(S(=O)(=O)O)c3cc(S(=O)(=O)O)cc(S(=O)(=O)O)c23)cc1NC(=O)c1cccc(NC(=O)Nc2cccc(C(=O)Nc3cc(C(=O)Nc4ccc(S(=O)(=O)O)c5cc(S(=O)(=O)O)cc(S(=O)(=O)O)c45)ccc3C)c2)c1 [suramin]
